{"source": "paper PMC7029851", "about": "“Antibacterial activity of novel dual bacterial DNA type II topoisomerase inhibitors” (PLoS ONE, 2020)", "key": {"[1]": {"system": "N. gonorrhoeae clinical isolates (n = 38)", "assay": "microbe, parasite or virus in culture", "format": "cell-based, Neisseria gonorrhoeae", "method": "(§1) The bacterial reference strains used in this study were purchased from ATCC (American Type Culture Collection) via LGC Standards (Middlesex, UK). […] Clinical MDR isolates were provided by Aptuit, the IHMA Europa Sàrl repository (Epalinges, Switzerland) and the Statens Serum Institute (Copenhagen, Denmark).\n(§2) MICs were determined by the broth microdilution method (the agar dilution method was used only for N. gonorrhoeae) according to CLSI guidelines.\n(§3) The results obtained using clinical isolates are reported as MIC50 and MIC90 values."}, "[2]": {"system": "N. gonorrhoeae ATCC 49226", "assay": "MIC, agar dilution", "format": "cell-based", "settings": "Neisseria gonorrhoeae, ATCC49226; N. gonorrhoeae ATCC 49226, ciprofloxacin-susceptible", "method": "as §2"}, "[3]": {"system": "N. gonorrhoeae WHO N", "assay": "MIC, agar dilution", "format": "cell-based", "settings": "Neisseria gonorrhoeae, ciprofloxacin-resistant", "method": "as §2"}, "[4]": {"system": "N. gonorrhoeae WHO K", "assay": "MIC, agar dilution", "format": "cell-based", "settings": "Neisseria gonorrhoeae, ciprofloxacin-resistant", "method": "as §2"}, "[5]": {"system": "N. gonorrhoeae WHO L", "assay": "MIC, agar dilution", "format": "cell-based", "settings": "Neisseria gonorrhoeae, ciprofloxacin-resistant", "method": "as §2"}, "[6]": {"system": "N. gonorrhoeae ATCC 19424", "assay": "MIC, agar dilution", "format": "cell-based", "settings": "Neisseria gonorrhoeae, ATCC19424; N. gonorrhoeae ATCC 19424, ciprofloxacin-susceptible", "method": "as §2"}, "[7]": {"molecular_target": "T1, S. aureus Topoisomerase IV (Staphylococcus aureus, UniProt P0C1U9)", "T1 construct": "purchased Inspiralis (Norwich, UK)", "assay": "S. aureus topoisomerase IV decatenation gel assay", "format": "biochemical", "method": "(§4) S. aureus and E. coli DNA gyrase supercoiling and topo IV decatenation assay kits, as well as human topoisomerase II decatenation assay kits, were provided by Inspiralis (Norwich, UK). Assays were performed according to the manufacturer’s instructions. The compounds were serially diluted (1:3 dilutions starting from a 300 μM final concentration) and assayed in a reaction mixture to obtain concentration-response curves in two different replicate experiments. The final concentration of DMSO in the assays was 1% (v/v). The reactions were terminated by the addition of 30 μl chloroform/isoamyl alcohol (26:1) and 30 μl Stop Dye (40% sucrose, 100 mM Tris HCl pH 7.5, 1 mM EDTA, 0.5 μg/ml bromophenol blue), after which the samples were loaded onto a 1.0% TAE ([…]) gel that was then run at 80 V for 2 hours. DNA bands were visualized by ethidium bromide staining the gel for 10 minutes, which was then destained for 10 minutes in water and analysed using gel documentation equipment (Syngene, Cambridge, UK). The DNA in each band was quantitated using Syngene Gene Tools software. Raw gel data (fluorescent band volumes) were converted by the software to percentages of the control (the fully supercoiled or decatenated DNA band). […] The global curve fit non-linear regression tool was used to calculate the IC50 values. The results are expressed as the average values obtained after calculating the IC50 from each replicate run."}, "[8]": {"molecular_target": "T2, E. coli Topoisomerase IV (Escherichia coli, UniProt P0AFI2)", "T2 construct": "purchased Inspiralis (Norwich, UK)", "T2 sequence (P20083 whole entry)": "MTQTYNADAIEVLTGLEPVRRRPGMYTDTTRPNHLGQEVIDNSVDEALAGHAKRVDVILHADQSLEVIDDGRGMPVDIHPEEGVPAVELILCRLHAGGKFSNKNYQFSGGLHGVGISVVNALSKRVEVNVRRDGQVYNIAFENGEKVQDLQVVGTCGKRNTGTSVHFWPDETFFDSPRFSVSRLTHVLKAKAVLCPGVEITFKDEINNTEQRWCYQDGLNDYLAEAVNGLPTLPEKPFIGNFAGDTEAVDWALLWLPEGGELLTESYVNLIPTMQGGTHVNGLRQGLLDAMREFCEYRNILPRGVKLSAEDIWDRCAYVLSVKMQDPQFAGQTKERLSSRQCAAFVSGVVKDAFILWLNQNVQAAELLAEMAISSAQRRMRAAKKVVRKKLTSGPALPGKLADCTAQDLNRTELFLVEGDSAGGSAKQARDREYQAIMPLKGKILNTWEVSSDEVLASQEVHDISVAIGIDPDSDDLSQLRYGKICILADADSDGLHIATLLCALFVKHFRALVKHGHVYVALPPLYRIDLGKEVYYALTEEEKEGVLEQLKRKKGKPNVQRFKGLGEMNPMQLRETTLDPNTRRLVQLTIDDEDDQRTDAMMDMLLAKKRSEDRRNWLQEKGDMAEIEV", "T2 sequence (P0AFI2 whole entry)": "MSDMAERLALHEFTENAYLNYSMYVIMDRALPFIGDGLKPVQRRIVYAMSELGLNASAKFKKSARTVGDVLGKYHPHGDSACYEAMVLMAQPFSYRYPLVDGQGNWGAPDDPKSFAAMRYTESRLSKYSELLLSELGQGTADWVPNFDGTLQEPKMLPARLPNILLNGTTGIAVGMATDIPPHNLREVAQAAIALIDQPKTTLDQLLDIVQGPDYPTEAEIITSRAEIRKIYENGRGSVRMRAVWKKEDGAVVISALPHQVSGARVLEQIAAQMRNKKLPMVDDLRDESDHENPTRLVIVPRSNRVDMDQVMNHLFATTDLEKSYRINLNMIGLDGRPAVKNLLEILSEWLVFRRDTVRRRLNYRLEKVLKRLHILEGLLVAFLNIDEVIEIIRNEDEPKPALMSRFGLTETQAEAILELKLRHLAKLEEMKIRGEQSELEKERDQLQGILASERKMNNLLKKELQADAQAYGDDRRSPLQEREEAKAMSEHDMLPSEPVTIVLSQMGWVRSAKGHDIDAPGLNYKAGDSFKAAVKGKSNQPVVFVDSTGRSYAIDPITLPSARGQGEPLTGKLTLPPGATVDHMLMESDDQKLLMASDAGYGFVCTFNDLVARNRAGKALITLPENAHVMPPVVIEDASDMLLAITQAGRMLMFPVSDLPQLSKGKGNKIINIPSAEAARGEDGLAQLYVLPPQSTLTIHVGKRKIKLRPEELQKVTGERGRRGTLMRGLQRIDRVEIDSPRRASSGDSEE", "assay": "E. coli topoisomerase IV decatenation gel assay", "format": "biochemical", "method": "as §4"}, "[9]": {"system": "P. aeruginosa ATCC 27853", "assay": "MIC, broth microdilution", "format": "cell-based", "settings": "Pseudomonas aeruginosa, ATCC27853; P. aeruginosa ATCC 27853, ciprofloxacin-susceptible", "method": "as §2"}, "[10]": {"system": "E. faecalis ATCC 29212", "assay": "MIC, broth microdilution", "format": "cell-based", "settings": "Enterococcus faecalis, ATCC29212; E. faecalis ATCC 29212, ciprofloxacin-susceptible", "method": "as §2"}, "[11]": {"system": "S. pneumoniae ATCC 49619", "assay": "MIC, broth microdilution", "format": "cell-based", "settings": "Streptococcus pneumoniae, ATCC49619; S. pneumoniae ATCC 49619, ciprofloxacin-susceptible", "method": "as §2"}, "[12]": {"system": "E. coli ATCC 25922", "assay": "MIC, broth microdilution", "format": "cell-based", "settings": "Escherichia coli, ATCC25922; E. coli ATCC 25922, ciprofloxacin-susceptible", "method": "as §2"}, "[13]": {"system": "H. influenzae ATCC 49766", "assay": "MIC, broth microdilution", "format": "cell-based", "settings": "Haemophilus influenzae, ATCC49766; H. influenzae ATCC 49766, ciprofloxacin-susceptible", "method": "as §2"}, "[14]": {"system": "S. aureus BAA-1720", "assay": "MIC, broth microdilution", "format": "cell-based", "settings": "Staphylococcus aureus, BAA1720; S. aureus BAA-1720, ciprofloxacin-resistant", "method": "as §2"}, "[15]": {"system": "K. pneumoniae ATCC 700603", "assay": "MIC, broth microdilution", "format": "cell-based", "settings": "Klebsiella pneumoniae, ATCC700603; K. pneumoniae ATCC 700603, ciprofloxacin-susceptible", "method": "as §2"}, "[16]": {"system": "K. pneumoniae AcrAB- mutant", "assay": "microbe, parasite or virus in culture", "format": "cell-based", "settings": "Klebsiella pneumoniae", "method": "as §1, §2"}, "[17]": {"system": "E. coli TolC- mutant", "assay": "microbe, parasite or virus in culture", "format": "cell-based", "settings": "Escherichia coli", "method": "as §1, §2"}, "[18]": {"molecular_target": "T3, Human Topoisomerase II (Homo sapiens, UniProt P11388)", "T3 construct": "purchased Inspiralis (Norwich, UK)", "T3 sequence (P11388 whole entry)": "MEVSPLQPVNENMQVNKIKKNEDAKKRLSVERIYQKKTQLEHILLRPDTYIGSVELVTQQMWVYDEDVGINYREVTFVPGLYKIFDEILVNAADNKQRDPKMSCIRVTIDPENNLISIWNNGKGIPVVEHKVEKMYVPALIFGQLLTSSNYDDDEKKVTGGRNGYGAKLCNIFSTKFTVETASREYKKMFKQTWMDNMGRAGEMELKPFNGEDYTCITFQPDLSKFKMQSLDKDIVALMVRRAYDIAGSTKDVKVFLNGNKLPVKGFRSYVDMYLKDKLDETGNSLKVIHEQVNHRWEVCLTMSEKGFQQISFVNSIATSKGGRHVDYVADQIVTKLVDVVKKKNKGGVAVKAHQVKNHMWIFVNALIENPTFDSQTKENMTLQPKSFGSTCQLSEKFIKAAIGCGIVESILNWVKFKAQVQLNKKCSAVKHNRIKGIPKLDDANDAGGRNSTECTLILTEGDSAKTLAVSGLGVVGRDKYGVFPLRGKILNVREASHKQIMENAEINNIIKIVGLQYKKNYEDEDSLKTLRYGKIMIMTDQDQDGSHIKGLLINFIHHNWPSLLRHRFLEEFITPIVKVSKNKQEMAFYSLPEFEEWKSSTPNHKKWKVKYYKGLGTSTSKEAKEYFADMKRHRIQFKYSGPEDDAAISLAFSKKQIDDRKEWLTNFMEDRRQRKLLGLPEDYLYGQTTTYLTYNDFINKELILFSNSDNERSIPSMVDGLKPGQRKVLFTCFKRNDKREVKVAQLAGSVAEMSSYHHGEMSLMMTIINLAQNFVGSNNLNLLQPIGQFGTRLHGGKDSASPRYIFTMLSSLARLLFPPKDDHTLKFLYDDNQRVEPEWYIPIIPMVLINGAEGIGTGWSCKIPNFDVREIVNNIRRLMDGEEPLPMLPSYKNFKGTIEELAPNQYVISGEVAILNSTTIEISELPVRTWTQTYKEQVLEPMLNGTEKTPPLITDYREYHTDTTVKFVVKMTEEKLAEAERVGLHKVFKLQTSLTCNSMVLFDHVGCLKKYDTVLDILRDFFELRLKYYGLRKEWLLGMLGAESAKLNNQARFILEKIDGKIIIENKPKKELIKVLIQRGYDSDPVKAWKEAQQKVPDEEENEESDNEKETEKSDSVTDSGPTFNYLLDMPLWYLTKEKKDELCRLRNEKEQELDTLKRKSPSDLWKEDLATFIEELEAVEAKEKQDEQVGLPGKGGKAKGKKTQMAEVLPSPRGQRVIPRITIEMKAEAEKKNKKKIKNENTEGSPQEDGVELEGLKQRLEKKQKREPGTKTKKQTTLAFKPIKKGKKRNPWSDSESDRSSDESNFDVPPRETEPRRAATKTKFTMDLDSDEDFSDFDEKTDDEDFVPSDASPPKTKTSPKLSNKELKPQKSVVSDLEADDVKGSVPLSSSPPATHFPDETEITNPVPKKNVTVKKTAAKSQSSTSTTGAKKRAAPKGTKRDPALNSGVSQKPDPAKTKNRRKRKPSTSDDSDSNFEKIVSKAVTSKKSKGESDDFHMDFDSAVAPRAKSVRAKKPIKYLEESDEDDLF", "assay": "Human topoisomerase II decatenation gel assay", "format": "biochemical", "method": "as §4"}, "[19]": {"molecular_target": "T4, E. coli DNA gyrase (Escherichia coli, UniProt P0AES4)", "T4 construct": "purchased Inspiralis (Norwich, UK)", "T4 sequence (P0AES4 whole entry)": "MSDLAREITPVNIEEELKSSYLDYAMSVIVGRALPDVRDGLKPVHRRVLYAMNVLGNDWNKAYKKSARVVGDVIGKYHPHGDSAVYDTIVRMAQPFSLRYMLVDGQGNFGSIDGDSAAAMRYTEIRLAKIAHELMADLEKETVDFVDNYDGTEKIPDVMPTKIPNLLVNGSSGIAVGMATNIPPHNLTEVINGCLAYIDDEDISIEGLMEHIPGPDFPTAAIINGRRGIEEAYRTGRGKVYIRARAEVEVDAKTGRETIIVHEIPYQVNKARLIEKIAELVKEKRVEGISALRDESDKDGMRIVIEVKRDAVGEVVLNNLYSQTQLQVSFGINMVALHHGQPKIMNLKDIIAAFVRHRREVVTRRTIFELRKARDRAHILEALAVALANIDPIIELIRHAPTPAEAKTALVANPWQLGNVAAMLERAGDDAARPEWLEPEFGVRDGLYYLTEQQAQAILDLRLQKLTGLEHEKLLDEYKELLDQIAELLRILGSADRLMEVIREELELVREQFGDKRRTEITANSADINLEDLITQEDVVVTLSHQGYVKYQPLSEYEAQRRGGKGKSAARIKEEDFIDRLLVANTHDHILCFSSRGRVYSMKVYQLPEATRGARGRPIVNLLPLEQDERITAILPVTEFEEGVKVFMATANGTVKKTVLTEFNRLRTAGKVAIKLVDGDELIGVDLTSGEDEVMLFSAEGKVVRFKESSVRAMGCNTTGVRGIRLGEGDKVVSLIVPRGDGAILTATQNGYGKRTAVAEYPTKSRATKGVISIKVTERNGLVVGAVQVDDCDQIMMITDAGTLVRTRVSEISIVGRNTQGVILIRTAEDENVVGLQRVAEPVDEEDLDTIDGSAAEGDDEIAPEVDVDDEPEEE", "assay": "E. coli DNA gyrase supercoiling gel assay", "format": "biochemical", "method": "as §4"}, "[20]": {"system": "E. faecalis clinical isolates (n = 12) vanA (6)/vanB (6)", "assay": "MIC, multidrug-resistant clinical isolates", "format": "cell-based", "settings": "Enterococcus faecalis", "method": "as §1, §2, §3"}, "[21]": {"system": "E. faecium clinical isolates (n = 12) vanA (6)/vanB (6)", "assay": "MIC, multidrug-resistant clinical isolates", "format": "cell-based", "settings": "Enterococcus faecium", "method": "as §1, §2, §3"}, "[22]": {"system": "S. aureus ATCC 29213", "assay": "MIC, broth microdilution", "format": "cell-based, Staphylococcus aureus", "settings": "Staphylococcus aureus", "method": "as §2"}, "[23]": {"molecular_target": "T5, S. aureus DNA gyrase (Staphylococcus aureus, UniProt P20831)", "T5 construct": "purchased Inspiralis (Norwich, UK)", "assay": "S. aureus DNA gyrase supercoiling gel assay", "format": "biochemical", "method": "as §4"}}, "note": "pIC50: −log10 of the molar value. Like-named read-outs stand apart in the source and are kept apart here.", "data": [{"compound": "O=C1COc2ncc(F)cc2N1[C@H]1CC[C@H](NCc2cc3c(=O)oc4ccc(F)cc4c3[nH]2)CC1", "note": "[Compound 1, 8-fluoro-2-({[trans-4-(7-fluoro-2-oxo-2,3-dihydro-1H-pyrido[2,3-b][1,4]oxazin-1-yl)cyclohexyl]amino}methyl)[1]benzopyrano[4,3-b]pyrrol-4(1H)-one]", "values": [{"measurement": "MIC range", "setting": "[1]", "value": "0.016 to 0.12", "unit": "µg/mL"}, {"measurement": "MIC50", "setting": "[1]; Neisseria gonorrhoeae", "value": 0.12, "unit": "µg/mL"}, {"measurement": "MIC90", "setting": "[1]; Neisseria gonorrhoeae", "value": 0.12, "unit": "µg/mL"}, {"measurement": "MIC", "setting": "[2]", "value": 0.06, "unit": "µg/mL"}, {"measurement": "MIC", "setting": "[3]", "value": 0.06, "unit": "µg/mL"}, {"measurement": "MIC", "setting": "[4]", "value": 0.12, "unit": "µg/mL"}, {"measurement": "MIC", "setting": "[5]", "value": 0.12, "unit": "µg/mL"}, {"measurement": "MIC", "setting": "[6]", "value": "≤ 0.06", "unit": "µg/mL"}, {"measurement": "pIC50", "setting": "[7]", "value": 5.65}, {"measurement": "pIC50", "setting": "[7]; replicate Assay 1, read-out: IC50 S. aureus Topoisomerase IV decatenation, Assay 1", "value": 5.66}, {"measurement": "pIC50", "setting": "[7]; replicate Assay 2, read-out: IC50 S. aureus Topoisomerase IV decatenation, Assay 2", "value": 5.64}, {"measurement": "pIC50", "setting": "[8]; average of two replicate experiments, read-out: IC50 E. coli Topoisomerase IV decatenation (average)", "value": 5.86}, {"measurement": "pIC50", "setting": "[8]; replicate Assay 1, read-out: IC50 E. coli Topoisomerase IV decatenation, Assay 1", "value": 5.87}, {"measurement": "pIC50", "setting": "[8]; replicate Assay 2, read-out: IC50 E. coli Topoisomerase IV decatenation, Assay 2", "value": 5.85}, {"measurement": "MIC", "setting": "[9]", "value": 2, "unit": "µg/mL"}, {"measurement": "MIC", "setting": "[10]", "value": 2, "unit": "µg/mL"}, {"measurement": "MIC", "setting": "[11]", "value": 0.5, "unit": "µg/mL"}, {"measurement": "MIC", "setting": "[12]", "value": 0.5, "unit": "µg/mL"}, {"measurement": "MIC", "setting": "[13]", "value": 0.25, "unit": "µg/mL"}, {"measurement": "MIC", "setting": "[14]", "value": 0.5, "unit": "µg/mL"}, {"measurement": "MIC", "setting": "[15]", "value": 4, "unit": "µg/mL"}, {"measurement": "MIC", "setting": "[16]", "value": 0.03, "unit": "µg/mL"}, {"measurement": "MIC", "setting": "[17]", "value": "≤ 0.016", "unit": "µg/mL"}, {"measurement": "pIC50", "setting": "[18]; average of two replicate experiments, read-out: IC50 Human Topoisomerase II decatenation (average)", "value": 4.01}, {"measurement": "pIC50", "setting": "[18]; replicate Assay 1, read-out: IC50 Human Topoisomerase II (TopoII) decatenation, Assay 1", "value": 4.02}, {"measurement": "pIC50", "setting": "[18]; replicate Assay 2, read-out: IC50 Human Topoisomerase II (TopoII) decatenation, Assay 2", "value": 4.00}, {"measurement": "pIC50", "setting": "[19]; average of two replicate experiments, read-out: IC50 E. coli Gyrase Supercoiling (average)", "value": 6.60}, {"measurement": "pIC50", "setting": "[19]; replicate Assay 1, read-out: IC50 E. coli gyrase Supercoiling, Assay 1", "value": 6.47}, {"measurement": "pIC50", "setting": "[19]; replicate Assay 2, read-out: IC50 E. coli gyrase Supercoiling, Assay 2", "value": 6.80}, {"measurement": "MIC50", "setting": "[20]", "value": 0.03, "unit": "µg/mL"}, {"measurement": "MIC90", "setting": "[20]", "value": 0.25, "unit": "µg/mL"}, {"measurement": "MIC", "setting": "[20]; read-out: MIC range", "value": "0.03 to 0.25", "unit": "µg/mL"}, {"measurement": "MIC50", "setting": "[21]", "value": 1, "unit": "µg/mL"}, {"measurement": "MIC90", "setting": "[21]", "value": 2, "unit": "µg/mL"}, {"measurement": "MIC", "setting": "[21]; read-out: MIC range", "value": "0.03 to 16", "unit": "µg/mL"}, {"measurement": "MIC", "setting": "[22]; ATCC29213, S. aureus ATCC 29213, ciprofloxacin-susceptible", "value": 0.25, "unit": "µg/mL"}, {"measurement": "MIC", "setting": "[22]; ATCC29213, S. aureus ATCC29213, ref strain, S4 File", "value": 0.25, "unit": "µg/mL"}, {"measurement": "pIC50", "setting": "[23]; IC50 S. aureus Gyrase Supercoiling (average), average of two replicate experiments", "value": 6.55}, {"measurement": "pIC50", "setting": "[23]; replicate Assay 1, read-out: IC50 S.aureus gyrase Supercoiling, Assay 1", "value": 6.60}, {"measurement": "pIC50", "setting": "[23]; replicate Assay 2, read-out: IC50 S.aureus gyrase Supercoiling, Assay 2", "value": 6.51}]}]}
